# Reference: paper PMC4191062, “Development of αGlcN(1↔1)αMan-Based Lipid A Mimetics as a Novel Class of Potent Toll-like Receptor 4 Agonists” (Journal of Medicinal Chemistry, 2014)
# Entries after “also recorded” stand apart in the source; their conditions may differ.
# Assays:
# human dendritic cells = experiment: Maturation marker expression in human dendritic cells (flow cytometry); assay type: cell-based; details: hDCs, 24 h; LPS 10 ng/ml
# From the text: To test the impact of selected α,α-GM-LAMs 1 and 3 on maturation of human dendritic cells (hDCs), immature monocyte-derived hDCs were stimulated with 1 and 3 in a wide concentration range or with E. coli LPS as positive control. DCs are able to persistently sense pathogen-associated molecular patterns and present antigens to T lymphocytes, thereby initiating an adaptive immune response.[7]
# None of the α,α-GM-LAMs exerted cytotoxic effects on DCs, as determined by propidium iodide staining (data not shown). […]
# stimulatory molecules CD86 as well as the antigen presenting structures MHC class I and MHC class II, which are necessary for the induction of an adaptive immune response (SI-Figure 5). […]
# up-regulation of the inhibitory B7-H1 (CD272) and Sialoadhesin (CD169), which is known to be indirectly up-regulated in DCs due to release of type-I interferons. […]
# stimulator not only of the NF-κB- but also of the IRF-pathway. Stimulation of DCs with the monophosphoryl α,α- […]
# SI-Figure 5. Bisphosphoryl α,α-GM-LAM 1 and monophosphoryl α,α-GM-LAM 3 induce the expression of maturation markers in human DCs. […] The cells were then harvested and the surface expression level of the indicated markers was measured by flow cytometry. […]
# [1] = Storage stability in aqueous solution (MALDI-TOF analysis); assay type: physicochemical; details: 4 °C, several months, free acids at the phosphates
# Method: Next, the free 6-OH group in the hexaacylated disaccharides 57 and 58 was phosphorylated by reaction with dibenzyl-(N,N′-diisopropylamino)phosphoramidite in the presence of a mild acid catalyst, 1H-tetrazole, and subsequent oxidation with mCPBA at −78 °C to furnish the bisphosphorylated hexaacylated products 61 and 62 in 91% and 89% yield, respectively. Final debenzylation by hydrogenation of 57, 61, and 62 on Pd-black followed by purification with gel permeation chromatography on Sephadex SX1 in toluene–methanol (2:1) afforded target bisphosphorylated Lipid A mimetics 1 and 2 and a monophosphorylated counterpart 3.
# THP-1 cells = experiment: IRF-3 and IκBα phosphorylation by western blotting in THP-1 cells; assay type: cell-based, human
# Method: Supplementary SI-Figure 3
# Dose-dependent responses (THP-1 cells: α,α-GM-LAM 1-3 and Re-LPS) at the concentration range 0.4 – 100 ng/ml which are presented in the Figure 5, were extended to the higher concentration range (up to 300 ng/ml).
# SI-Figure 3. Dose-dependent expression of cytokines induced by α,α-GM-LAM 1-3 in macrophage cell line THP-1 compared to E. coli Re-LPS at the concentration range 0.4 – 300 ng/ml. (A) Production of TNF-α; (B) Induction of […]
# Supplementary SI-Figure 4
# Lipid A mimetic 1 was examined for the activation of NF-κB (Nuclear factor kappaB) and IRF3
# (Interferon regulatory factor 3). IRF3 activation […]
# noticeable after 1h stimulation, though was
# LPS. At 1h stimulation the α,α-GM-LAM 1 was […]
# whereas at 3h simulation compound 1 (at a […]
# stronger phosphorylation of IκBa (P-IκBa levels) as well as the higher levels of IκBa (reflecting the NF-κB dependent re-synthesis of IκB following its
# Thus, IRF3 activation and NF-κB activation […]
# degradation and its NF-κB dependent resynthesis) […]
# compared to LPS after 3h stimulation.
# SI-Figure 4. NF-κB and IRF-3 activation by LPS and α,α-GM-LAM 1 in macrophage-like cell line THP-1. THP-1 cells were treated for 1 h (upper panel) or for 3 h (lower panel) with 1 or with E. coli O111:B4 LPS at the concentrations 10, 100 and 1000 ng/ml. Non treated cells (NT) or cells treated with DMSO were used as controls.
# Cell extracts were separated by SDS polyacrylamide gel electrophoresis. Phosphorylated or total IRF-3 and IκBα was detected by western blotting as indicated. Actin detection was used as a control for equal loading in each line. […]
# Supplementary SI-Figure 6
# The relative contribution of hydrophobic (acyl chains of Lipid A) and electrostatic (phosphate groups of Lipid A) interactions at the dimerization interface of two TLR4·MD-2·LPS complexes as well as the impact of the molecular shape of MD-2–bound Lipid A on the initiation of TLR4-mediated immune response remains largely unknown. […]
SMILES,"DCs maturation and up-regulation of CD86, MHC class I and MHC class II compared to LPS (human dendritic cells)",stability on storage in aqueous solution [1],"activation of NF-κB compared with LPS (THP-1 cells; THP-1, 1 h stimulation)","IRF3 activation (IRF-3 phosphorylation) (THP-1 cells; THP-1, 3 h stimulation)","activation of NF-κB compared with LPS (P-IκBα and IκBα levels) (THP-1 cells; THP-1, 3 h stimulation, concentration higher than 50 nM)"
"CCCCCCCCCCCCCC(=O)O[C@H](CCCCCCCCCCC)CC(=O)O[C@@H]1[C@@H](NC(=O)C[C@@H](CCCCCCCCCCC)OC(=O)CCCCCCCCCCC)[C@@H](O[C@H]2O[C@H](COP(=O)(O)O)[C@@H](OC(=O)C[C@@H](CCCCCCCCCCC)OC(=O)CCCCCCCCCCC)[C@H](O)[C@@H]2OC)O[C@H](CO)[C@H]1OP(=O)(O)O [Compound 1, 4-O-[(R)-3-(Dodecanoyloxy)tetradecanoyl]-2-O-methyl-6-O-phosphoryl-α-D-mannopyranosyl-(1↔1)-2-deoxy-2-[(R)-3-(dodecanoyloxy)tetradecanoylamino]-4-O-phosphoryl-3-O-[(R)-3-(tetradecanoyloxy)tetradecanoyl]-α-D-glucopyranoside]",as potent as by LPS; also recorded: as potent as that with LPS,without any noticeable sign of degradation,comparable,detectable after 3h stimulation,more potent
"CCCCCCCCCCCCCC(=O)O[C@H](CCCCCCCCCCC)CC(=O)O[C@@H]1[C@@H](NC(=O)C[C@@H](CCCCCCCCCCC)OC(=O)CCCCCCCCCCC)[C@@H](O[C@H]2O[C@H](COP(=O)(O)O)[C@@H](OC(=O)C[C@@H](CCCCCCCCCCC)OC(=O)CCCCCCCCC)[C@H](O)[C@@H]2OC)O[C@H](CO)[C@H]1OP(=O)(O)O [Compound 2, 4-O-[(R)-3-(Decanoyloxy)tetradecanoyl]-2-O-methyl-6-O-phosphoryl-α-mannopyranosyl-(1↔1)-2-deoxy-2-[(R)-3-(dodecanoyloxy)tetradecanoylamino]-4-O-phosphoryl-3-O-[(R)-3-(tetradecanoyloxy)tetradecanoyl]-α-D-glucopyranoside]",,without any noticeable sign of degradation,,,
"CCCCCCCCCCCCCC(=O)O[C@H](CCCCCCCCCCC)CC(=O)O[C@@H]1[C@@H](NC(=O)C[C@@H](CCCCCCCCCCC)OC(=O)CCCCCCCCCCC)[C@@H](O[C@H]2O[C@H](CO)[C@@H](OC(=O)C[C@@H](CCCCCCCCCCC)OC(=O)CCCCCCCCCCC)[C@H](O)[C@@H]2OC)O[C@H](CO)[C@H]1OP(=O)(O)O [Compound 3, 4-O-[(R)-3-(Dodecanoyloxy)tetradecanoyl]-2-O-methyl-α-D-mannopyranosyl-(1↔1)-2-deoxy-2-[(R)-3-(dodecanoyloxy)tetradecanoylamino]-4-O-phosphoryl-3-O-[(R)-3-(tetradecanoyloxy)tetradecanoyl]-α-D-glucopyranoside]",less pronounced activation marker profile,,,,
